For one assay, the target named is CKIδ wild type (Homo sapiens, UniProt P48730). Briefly: CK1δ kinase assay (Kinase-Glo). The class given is biochemical. To be noted: 10 μM ATP, 2 nM CKIδ, 85 min at 25° C.; read-out: CK1 δ IC50. As to the method: The CK1δ kinase assay was performed in a 40 μl final volume in buffer containing 50 mM Tris, pH 7.5, 10 mM MgCl2, 1 mM dithiothreitol, 100 μg/mL BSA with 10 μM ATP, 2 nM CKIδ wild type, and 42 μM peptide substrate PLSRTLp[…] (Flotow et al., 1990) in the presence of 1 μl of CKIδ inhibitor or 4% DMSO. The reaction was incubated for 85 min at 25° C.; detection was carried out as described for the Kinase-Glo Assay (Promega). Luminescent output was measured on the Perkin Elmer Envision plate reader (PerkinElmer, Waltham, Mass.).
Sequence of CKIδ wild type (P48730 whole entry): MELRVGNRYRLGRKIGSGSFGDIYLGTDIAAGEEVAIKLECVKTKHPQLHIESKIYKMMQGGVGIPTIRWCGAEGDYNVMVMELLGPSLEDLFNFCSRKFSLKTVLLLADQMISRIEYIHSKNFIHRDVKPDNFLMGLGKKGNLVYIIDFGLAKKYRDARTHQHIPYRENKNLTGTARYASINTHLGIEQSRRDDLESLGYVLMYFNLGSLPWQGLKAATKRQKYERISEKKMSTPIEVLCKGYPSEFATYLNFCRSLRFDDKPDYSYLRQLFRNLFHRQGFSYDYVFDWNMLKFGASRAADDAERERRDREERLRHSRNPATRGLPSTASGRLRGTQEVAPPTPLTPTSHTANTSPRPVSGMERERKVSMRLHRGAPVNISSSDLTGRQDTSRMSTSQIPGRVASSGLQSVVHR
A general note: In Kinase-Glo more light means more ATP remaining.

Assay [1] addresses T1, human CK1δ (Cos 7 cells cotransfected with mouse Per3-GFP) (Homo sapiens, UniProt P48730).
T1 construct: His tag of the vector pcDNA4/hisA (only the vector name is printed); expressed in transfected cells; host or cells: Cos 7 cells
Briefly: CK1 WCA HCS nuclear translocation assay (CK1δ). The class given is cell-based. As to conditions: inhibition of mPer3-GFP translocation to the nucleus, overnight exposure, read-out: CK1 δ WCA EC50. As to the method: CK1 WCA HCS Nuclear Translocation Assay.
Cos 7 cells were maintained at 37° C. in 5% CO2 in Dulbecco's Modified Eagle Medium (Gibco 11995) supplemented with 10% fetal bovine serum. Log-phase cells were dislodged with 5 min treatment of TrypLE Express (Gibco 12605) and viable cell count was determined with Cedex cell counter. Cells were diluted in DMEM medium to a density of 1.5e5 viable cells/mL in ⅔ of the final volume of final transfected cell mix. Cells were cotransfected with two plasmid DNAs, mouse Per3-GFP (green fluorescent protein) in pd2EGFP-N1 vector and human CKI in pcDNA4/hisA vector (for CK1Epsilon at a ratio of 1:5 respectively; for CK1δ at a ratio of 1:11 respectively), using Lipofectamine 2000 reagent (Invitrogen) according to the manufacturer's recommendations. The transfection mix contained approximately 0.83 μg/mL of DNA and 6 μL/mL of Lipofectamine 2000, in a total of ⅓ of the final transfection volume in Opti-MEM I medium (Invitrogen). After 20 min at rt, the cell mix was combined with the DNA transfection mix, per manufacturer instructions. 50 μL of the transfected cell suspension was dispensed per well by multidrop dispenser into Greiner 384-well Cellcoat (PDL) plates (Greiner #781946).
Compounds were solubilized in 100% DMSO, diluted with Opti-MEM I to a 4× concentration before addition to plated cells. After overnight exposure at 37° C. in a CO2 incubator, cells were fixed by the addition of 12% paraformaldehyde (Electron Microscopy Sciences, Hatfield, Pa.) in phosphate-buffered saline (PBS) with 20% sucrose to a final concentration of 4%, and then the cells were incubated for 30 min at rt. Fixative was removed, and cells were washed with PBS and then stained with 0.4 μg/ml Hoechst dye (Invitrogen) in blocking buffer containing 4% goat serum (Vector Labs s-1000) and 0.1% TritonX (Sigma T8787) for 1 h. Cells were washed again with PBS and stored at 4° C. in PBS or scanned immediately with the Cellomics ArrayScan VTI. CKIδ dependent nuclear localization of the GFP-tagged mPer3 protein was quantitated using the Cellomics ArrayScan VTI system utilizing the Cytoplasm to Nucleus translocation bioapplication to calculate the Nuclear-Cytoplasmic Intensity difference. Inhibitors of CK1 δ/ε were tested across a dose response curve to evaluate their ability to inhibit mPer3-GFP translocation to the nucleus. Cells with a total intensity of mPER3:GFP expression equal to or greater than 20,000 are included in analysis.

Another assay has as its target CKI ε wild type (Homo sapiens, UniProt P49674). Briefly: CK1ε kinase assay (Kinase-Glo). To be noted: 10 μM ATP, 2.5 nM CKI ε, 70 min at 25° C.; read-out: CK1 ε:IC50. The class given is biochemical. As to the method:
The CK1ε kinase assay was performed in a 40-μl final volume in buffer containing 50 mM Tris, pH 7.5, 10 mM MgCl2, 1 mM dithiothreitol, 100 μg/mL BSA with 10 μM ATP, 2.5 nM CKI ε wild type, and 42 μM peptide substrate PLSRTLp[…] (Flotow et al., 1990) in the presence of 1 μl of CKI ε inhibitor or 4% DMSO. The reaction was incubated for 70 min at 25° C.; detection was carried out as described for the Kinase-Glo Assay (Promega). Luminescent output was measured on the Perkin Elmer Envision plate reader (PerkinElmer, Waltham, Mass.).

T1 sequence (P48730 whole entry): as above
Sequence of CKI ε wild type (P49674 whole entry): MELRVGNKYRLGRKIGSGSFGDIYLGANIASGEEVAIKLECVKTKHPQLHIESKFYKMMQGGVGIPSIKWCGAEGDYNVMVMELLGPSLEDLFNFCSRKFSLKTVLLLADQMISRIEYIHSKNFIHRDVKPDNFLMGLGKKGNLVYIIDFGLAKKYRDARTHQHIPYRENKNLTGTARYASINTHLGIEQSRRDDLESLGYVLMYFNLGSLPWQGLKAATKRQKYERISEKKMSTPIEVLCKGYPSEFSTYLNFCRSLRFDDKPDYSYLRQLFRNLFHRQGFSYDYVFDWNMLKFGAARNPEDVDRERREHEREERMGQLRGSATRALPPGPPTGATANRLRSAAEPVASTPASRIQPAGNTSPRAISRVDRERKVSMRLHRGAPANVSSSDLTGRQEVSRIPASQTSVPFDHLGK

Usually IC50 stands for the concentration needed to halve the response being measured. The EC50 is the midpoint of the concentration-response curve. For `Cn1cc(-c2ccnc3c2C(=O)N(C2CCCC2)C3)c(-c2ccc(F)cc2)n1` [Example 32, 6-cyclopentyl-4-[3-(4-fluorophenyl)-1-methyl-1H-pyrazol-4-yl]-6,7-dihydro-5H-pyrrolo[3,4-b]pyridin-5-one], the results for the IC50 on CKIδ wild type and on CKI ε wild type were 8.93 nM and 40.8 nM, respectively. The EC50 in assay [1] is 84.9 nM.
Take `Cn1cc(CCN2Cc3nccc(-c4cn(C)nc4-c4ccc(F)cc4)c3C2=O)cn1` [Example 33, 4-[3-(4-fluorophenyl)-1-methyl-1H-pyrazol-4-yl]-6-[2-(1-methyl-1H-pyrazol-4-yl)ethyl]-6,7-dihydro-5H-pyrrolo[3,4-b]pyridin-5-one]: the IC50 was greater than 75.5 nM on CKIδ wild type and greater than 230 nM at CKI ε wild type. In assay [1], the concentration for a half-maximal effect (EC50) came to 232 nM.
For `Cc1c(CN2Cc3nccc(-c4cn(C)nc4-c4ccc(F)cc4)c3C2=O)cnn1C` [Example 35, 6-[(1,5-dimethyl-1H-pyrazol-4-yl)methyl]-4-[3-(4-fluorophenyl)-1-methyl-1H-pyrazol-4-yl]-6,7-dihydro-5H-pyrrolo[3,4-b]pyridin-5-one], the values for the IC50 at CKIδ wild type and at CKI ε wild type were 23.3 nM and 130 nM, respectively. In assay [1], the EC50 stood at 104 nM.
The corresponding values for `Cn1cc(-c2ccnc3c2C(=O)N(C2CCOCC2)C3)c(-c2ccc(F)cc2)n1` [Example 36, 4-[3-(4-fluorophenyl)-1-methyl-1H-pyrazol-4-yl]-6-(tetrahydro-2H-pyran-4-yl)-6,7-dihydro-5H-pyrrolo[3,4-b]pyridin-5-one] are greater than 195 nM, greater than 516 nM and 224 nM.
For `Cn1cc(-c2ccnc3c2C(=O)N(CC2CC2)C3)c(-c2ccc(F)cc2)n1` [Example 37, 6-(cyclopropylmethyl)-4-[3-(4-fluorophenyl)-1-methyl-1H-pyrazol-4-yl]-6,7-dihydro-5H-pyrrolo[3,4-b]pyridin-5-one] the same measures were 12.9 nM, 82.5 nM and 74.1 nM.
As to `Cc1noc(CCN2Cc3nccc(-c4cn(C)nc4-c4ccc(F)cc4)c3C2=O)n1` [Example 38, 4-[3-(4-fluorophenyl)-1-methyl-1H-pyrazol-4-yl]-6-[2-(3-methyl-1,2,4-oxadiazol-5-yl)ethyl]-6,7-dihydro-5H-pyrrolo[3,4-b]pyridin-5-one], the figures for the IC50 at CKIδ wild type and on CKI ε wild type were 18.6 nM and 92 nM, respectively. Further, the EC50 in assay [1] stood at 71.4 nM.
Regarding `CC(C)CN1Cc2nccc(-c3cn(C)nc3-c3ccc(F)cc3)c2C1=O` [Example 39, 4-[3-(4-fluorophenyl)-1-methyl-1H-pyrazol-4-yl]-6-isobutyl-6,7-dihydro-5H-pyrrolo[3,4-b]pyridin-5-one], the figures for the IC50 on CKIδ wild type and on CKI ε wild type were 49.5 nM and 241 nM, respectively. Moreover, the EC50 in assay [1] stood at 188 nM.
For the molecule `Cn1cc(-c2ccnc3c2C(=O)N(CCC#N)C3)c(-c2ccc(F)cc2)n1` [Example 40, 3-{4-[3-(4-fluorophenyl)-1-methyl-1H-pyrazol-4-yl]-5-oxo-5,7-dihydro-6H-pyrrolo[3,4-b]pyridin-6-yl}propanenitrile], the IC50 amounted to 11.1 nM on CKIδ wild type and 47.1 nM on CKI ε wild type. For the same molecule, the EC50 in assay [1] turned out to be 53.7 nM.
For `Cn1cc(-c2ccnc3c2C(=O)N(Cc2cccc(C#N)c2)C3)c(-c2ccc(F)cc2)n1` [Example 41, 3-({4-[3-(4-fluorophenyl)-1-methyl-1H-pyrazol-4-yl]-5-oxo-5,7-dihydro-6H-pyrrolo[3,4-b]pyridin-6-yl}methyl)benzonitrile] the same measures were 20.5 nM, 108 nM and 65.5 nM.
For `COCCN1Cc2nccc(-c3cn(C)nc3-c3ccc(F)cc3)c2C1=O` [Example 42, 4-[3-(4-fluorophenyl)-1-methyl-1H-pyrazol-4-yl]-6-(2-methoxyethyl)-6,7-dihydro-5H-pyrrolo[3,4-b]pyridin-5-one], the IC50 on CKIδ wild type was determined as 67.3 nM; on CKI ε wild type it was 386 nM. Moreover, in assay [1], the EC50 was 623 nM.
Consider `CN(C)C(=O)CN1Cc2nccc(-c3cn(C)nc3-c3ccc(F)cc3)c2C1=O` [Example 43, 2-{4-[3-(4-fluorophenyl)-1-methyl-1H-pyrazol-4-yl]-5-oxo-5,7-dihydro-6H-pyrrolo[3,4-b]pyridin-6-yl}-N,N-dimethylacetamide], for which the IC50 on CKIδ wild type amounted to 93.2 nM; at CKI ε wild type, 512 nM. Moreover, the EC50 in assay [1] was determined as 564 nM.
`COC[C@H]1CCC[C@H]1N1Cc2nccc(-c3cn(C)nc3-c3ccc(F)cc3)c2C1=O` [Example 44, 4-[3-(4-fluorophenyl)-1-methyl-1H-pyrazol-4-yl]-6-[(1R,2S)-2-(methoxymethyl)cyclopentyl]-6,7-dihydro-5H-pyrrolo[3,4-b]pyridin-5-one]: the IC50 at CKIδ wild type was 70.8 nM; on CKI ε wild type, 342 nM. In assay [1], the EC50 was determined as 437 nM.
Consider `Cn1cc(-c2ccnc3c2C(=O)N([C@H]2[C@@H]4COC[C@@H]42)C3)c(-c2ccc(F)cc2)n1` [Example 45, 4-[3-(4-fluorophenyl)-1-methyl-1H-pyrazol-4-yl]-6-[(1R,5S,6r)-3-oxabicyclo[3.1.0]hex-6-yl]-6,7-dihydro-5H-pyrrolo[3,4-b]pyridin-5-one], for which the concentration for half-maximal inhibition (IC50) on CKIδ wild type worked out at 19.5 nM; at CKI ε wild type it was 87 nM. Besides, in assay [1], the concentration for a half-maximal effect (EC50) came to 167 nM.
With `Cn1cc(-c2ccnc3c2C(=O)N([C@H]2CCOC2=O)C3)c(-c2ccc(F)cc2)n1` [Example 46, 4-[3-(4-fluorophenyl)-1-methyl-1H-pyrazol-4-yl]-6-[(3S)-2-oxotetrahydrofuran-3-yl]-6,7-dihydro-5H-pyrrolo[3,4-b]pyridin-5-one], the IC50 was determined as 68.7 nM at CKIδ wild type and 384 nM on CKI ε wild type. In assay [1], the EC50 worked out at 1430 nM.
For the molecule `CCC[C@@H](C)N1Cc2nccc(-c3cn(C)nc3-c3ccc(F)cc3)c2C1=O` [Example 47, 4-[3-(4-fluorophenyl)-1-methyl-1H-pyrazol-4-yl]-6-[(1R)-1-methylbutyl]-6,7-dihydro-5H-pyrrolo[3,4-b]pyridin-5-one], the IC50 was greater than 160 nM on CKIδ wild type and greater than 423 nM on CKI ε wild type. Moreover, the 50% effective concentration (EC50) in assay [1] amounted to 89.7 nM.
The corresponding values for `Cn1cc(-c2ccnc3c2C(=O)N(C24CC(C2)C4)C3)c(-c2ccc(F)cc2)n1` [Example 48, 6-bicyclo[1.1.1]pent-1-yl-4-[3-(4-fluorophenyl)-1-methyl-1H-pyrazol-4-yl]-6,7-dihydro-5H-pyrrolo[3,4-b]pyridin-5-one] are 18.4 nM, 80.7 nM and 130 nM.
For `CC(C)OC(=O)CN1Cc2nccc(-c3cn(C)nc3-c3ccc(F)cc3)c2C1=O` [Example 49, isopropyl {4-[3-(4-fluorophenyl)-1-methyl-1H-pyrazol-4-yl]-5-oxo-5,7-dihydro-6H-pyrrolo[3,4-b]pyridin-6-yl}acetate] the same measures were 108 nM, 496 nM and 506 nM.
Regarding `Cn1cc(-c2ccnc3c2C(=O)N(Cc2cccnc2)C3)c(-c2ccc(F)cc2)n1` [Example 50, 4-[3-(4-fluorophenyl)-1-methyl-1H-pyrazol-4-yl]-6-(pyridin-3-ylmethyl)-6,7-dihydro-5H-pyrrolo[3,4-b]pyridin-5-one], the figures for the half-maximal inhibitory concentration (IC50) on CKIδ wild type and at CKI ε wild type were 21.3 nM and 145 nM, respectively. Further, the EC50 in assay [1] came to 83.6 nM.

For the origin of these results see patent publication US8536164B2, “Fused pyridine compounds as casein kinase inhibitors” (Pfizer Inc., priority 2010, dated 2013).
